Measured values as given in paper PMC6331810, “Novel Coumarin-Containing Aminophosphonatesas Antitumor Agent: Synthesis, Cytotoxicity, DNA-Binding and Apoptosis Evaluation” (Molecules, 2015).

What was measured:
[1] = tested on: HUVEC (Human Umbilical Vein Endothelial Cells); test: MTT cytotoxicity assay, HUVEC normal cells; type: cell-based; details: no irradiation, mean ± SD of three experiments
Procedure: (§1) Cell Lines. The following in vitro human cancer cell lines were used: HCT-116 (Human colorectal cells), human KB (human nasopharyngeal carcinoma cells), MGC-803 (human lung adenocarcinoma cell line), HUVEC (Human Umbilical Vein Endothelial Cells). The cell lines (HCT-116, KB, MGC-803 and HUVEC) were purchased from the Cell Resource Center of Shanghai Institutes for Biological Sciences, the Academy of Sciences of China.
(§2) Cell Culture. HCT-116, human KB, MGC-803 and HUVEC cells were cultured in Dulbecco Modified Eagle Medium (DMEM; HyClone, Los Angeles, CA, USA), containing 4.0 mM L-Glutamine and 4500 mg/L Glucose, supplemented with 10% (v/v) foetalbovine serum (FBS; HyClone). The cell culturemedia was supplemented with penicillin/streptomycin at 100 Units/mL as adherent monolayers. Cell cultures were kept in a humidified incubator with 5% CO2 at 37 °C. Stock solutions were prepared in dimethyl sulfoxide (DMSO) and further dilutions were made with fresh culture medium. The concentration of DMSO in the final culture medium was 1%, which had no effect on the cell viability.
(§3) MTT Assay. Chemosensitivity was assessed using 3-(4,5-dimethylthiazol-2-yl)-2,5-diphenyl tetrazolium bromide (MTT) assay. Briefly, exponentially growing HCT-116 (3000–4000 cells/well), human KB (2000–3000 cells/well) and MGC 803 (2000–3000 cells/well) were seeded into 96-well plates and treated with indicated concentrations of samples for 48 h, and then […] of MTT (10 mg/mL) was added. After incubation for 4 h at 37 °C, the purple formazan crystals (i.e., a reduced form of MTT) generated from viable cells were dissolved by adding 100 μL DMSO in each well. The plates were swirled gently for 10 min to dissolve the precipitate, and quantified by measuring the optical density (OD) of the plates at a wavelength of 490 nm on plate reader (TECAN infinite M1000). Each concentration was repeated in three wells and the same experimental conditions were provided for all compounds and MTT analysis was repeated three times for each cell line.

[2] = tested on: MGC-803 (human lung adenocarcinoma cell line); test: MTT cytotoxicity assay, MGC-803; type: cell-based; details: 48 h, no irradiation, mean ± SD of three experiments
Procedure: as §1, §2, §3

[3] = tested on: HCT-116 (Human colorectal cells); test: MTT cytotoxicity assay, HCT-116; type: cell-based; details: MTT, 48 h, no irradiation, mean ± SD of three experiments
Procedure: as §1, §2, §3

[4] = tested on: human KB (human nasopharyngeal carcinoma cells); test: MTT cytotoxicity assay, human KB; type: cell-based; details: 48 h, no irradiation, mean ± SD of three experiments
Procedure: as §1, §2, §3

CT-DNA [5] = test: Spectrofluorimetric titration with CT-DNA (Stern-Volmer and binding constants); parameters: species or system calf; details: from F0/F-1 vs [DNA]; Tris-HCl buffer pH 7.2
Procedure: The DNA binding properties of compounds 8a–8j were evaluated based on their affinity or interaction with CT-DNA, measured with fluorescence spectrometric titration.
The calibration curve for determination of DNA was constructed by adding different proportion of DNA to a 2.0 × 10^−3 M compound 8j solution (pH = 7.2 Tris-HCl buffer). […] [Q] is the concentration of quencher. KSV is the Stern-Volmer constant and KQ is the bimolecular quenching rate constant. τ0 is the lifetime of the fluorophore in the absence of quencher and for most biomolecules τ0 is about 10^−8 s. The Stern-Volmer constant, KSV, for compound 8j has been determined from the plot of F0/F-1 vs. [DNA] (see Figure 2) and found to be 5.11 × 10^2 M^−1.
When small molecules binding independently to a set of equivalent sites on a macromolecule, the equilibrium between free and bound molecules is given by the equation [28]: (2) lg (F0/F-1) = lgKb + nlg[Q] where Kb and n are the binding constant and the number of binding sites, respectively, which could be got from the curve of lg(F0/F-1) vs. lg[Q]. The plot of lg(F0/F-1) vs. lg[DNA] has been shown in Figure 3 for compound 8j and indicates a simple binding process for the compound.
All fluorescence experiments were carried out on a Perkin-Elmer LS50B luminescence spectrometer. Fluorescence spectra were measured at rt using quartz cells of 1cm path. To the solutions of the drugs (2.0 × 10^−3 M) in 2.5 mL Tris-HCl buffer (pH = 7.2) were added aliquots of CT-DNA (2.0 × 10^−3 M) solution containing drugs (2.0 × 10^−3 M) in 2.5 mL Tris-HCl buffer (pH = 7.2). This operation ensured that the concentration of CT-DNA increased gradually from 0 to 360 µM, while the concentrations of drugs were kept constant. The mixing was achieved by stirring for 10min. Then, the corresponding fluorescence spectra were measured (ex 325 nm, ex/em 1.5 nm/1.5 nm). Binding constants were derived from the modified.

GelRed/CT-DNA = test: GelRed-DNA competitive binding (fluorescence quenching); parameters: species or system calf; details: I0/I vs [Q]; [GelRed]/[DNA] = 1:10, ex 350 nm, em 590 nm
CT-DNA [6] = test: Circular dichroism spectra of CT-DNA; type: binding, calf; details: [compound]/[DNA] 1:10; 1.5 × 10^−4 M DNA, 1.5 × 10^−5 M compound
Procedure: CD absorption spectra of DNA were measured in TBS at a 100 nm/min scan rate in the wavelength range from 200 to 500 nm, with 1.5 × 10^−4 M DNA in the absence and presence of each compound of 1.5 × 10^−5 M, respectively. The CD signal of TBS was taken as the background and subtracted from the spectra. All the spectroscopic experiments were performed at 25 °C.

HCT-116 cells = test: Apoptosis and cell cycle analysis by flow cytometry (PI staining); type: cell-based, human; details: HCT-116, 48 h at IC50 concentration; untreated cells 35.32%
Procedure: Compared to the control (untreated cells), changes in the cell cycle distribution of treated HCT-116 cells were evident.
Figure 6 Inhibition of cell cycle progress in HCT-116 cells treated with compounds 8d, 8f, 8c and 8j for 48 h. Cells were fixed with ethanol and stained with PI. Cell cycle distribution was analyzed by flow cytometry. First peak represents sub-G1 peak, which was taken as the fraction of the apoptotic cell population. TEXT PRINTED IN THE PICTURE: 8d: Diploid: 100.00%; Dip G1: 87.24 % at 74.84; Dip G2: 7.42 % at 147.44; Dip S: 5.34 % | 8f: Diploid: 100.00%; Dip G1: 74.25 % at 73.13; Dip G2: 10.86 % at 144.07; Dip S: 14.89 % | 8c: Diploid: 100.00%; Dip G1: 82.72 % at 72.85; Dip G2: 6.28 % at 143.51; Dip S: 11.00% | 8j: Diploid: 100.00%; Dip G1: 15.12 % at 45.10; Dip G2: 52.47 % at 88.84; Dip S: 32.40%; Apoptosis: 4.01 % Mean: 33.84 | Control (−): Diploid: 100.00%; Dip G1: 35.32 % at 52.60; Dip G2: 19.20 % at 103.62; Dip S: 45.84% DOUBTS OF THE COPYIST ABOUT THIS PICTURE: Print is small throughout, so 3, 5, 6, 8 and 9 cannot be told apart with certainty in the values below; best readings are given. / 8d, Dip G1: 87.24 % at 74.84, the 8s uncertain / 8d, Dip S: 5.34, the 5 and 3 uncertain / 8f, Dip G2: 10.86 % at 144.07, the 8 and 6 uncertain / 8f, Dip S: 14.89, the 8 and 9 uncertain / 8c, Dip G1: 82.72 % at 72.85, the 8s and 5 uncertain / 8c, Dip G2: 6.28 % at 143.51, the 6, 8, 3 and 5 uncertain / 8j, Dip G2: 52.47 % at 88.84, the 5 and 8s uncertain / 8j, Apoptosis: 4.01 % Mean: 33.84, the 3s and 8 uncertain / Control (−), Dip G1: 35.32 % at 52.60, the 3s, 5s and 6 uncertain / Control (−), Dip G2: 19.20 % at 103.62, the 9, 3 and 6 uncertain / Control (−), Dip S: 45.84, the 5 and 8 uncertain / Control (−) is an untreated control, not a compound; it is included because results are printed with it. / G2/G1: 1.97 and %CV, printed in every plot, are left out as fit parameter and statistic.
Apoptosis was quantified by assessing the fraction of cells with sub-G1 DNA content by flow cytometry. The cells lines were treated with indicated concentrations of compounds […]. After incubated for 48 h, cells were washed twice with ice-cold PBS, fixed and permeabilized with ice-cold 70% ethanol at −20 °C overnight. The cells were treated with 100 μg/mL RNase A at 37 °C for 30 min after washed with ice-cold PBS, and finally stained with 1 mg/mL propidium iodide (PI) in the dark at 4 °C for 30 min. Analysis was performed with the system software (Cell Quest; BD Biosciences, Franklin Lakes, NJ, USA).

[7] = Homo sapiens, HUVEC, light or radiation study
[8] = Homo sapiens, MGC-803, light or radiation study
[9] = Homo sapiens, HCT-116, light or radiation study
[10] = Homo sapiens, light or radiation study

Compound	IC50 [1, 7]	IC50 [2, 8]	IC50 [3, 9]	IC50 [4, 10]	KSV (Stern-Volmer constant) (CT-DNA [5])	IC50 [1]	IC50 [2]	IC50 [3]	IC50 [4]	Kq (quenching constant of GelRed bound to DNA) (GelRed/CT-DNA)	Negative AI decrease (CD absorption peak of CT-DNA at 247 nm) (CT-DNA [6])	Positive AI decrease (CD absorption peak of CT-DNA at 281 nm) (CT-DNA [6])	G1-phase population (HCT-116 cells)
Cc1cc(=O)oc2cc(O)ccc12 [Compound 2, 7-Hydroxy-4-methyl-2H-chromen-2-one, reference compound]	> 100 µM	> 100 µM	> 100 µM	> 50 µM	442 M⁻¹	–	–	–	–	–	–	–	–
O=c1[nH]cc(F)c(=O)[nH]1 [Compound 5-Fu, 5-fluoro-2,4(1H,3H)pyrimidinedione, reference compound]	56 ± 3.21 µM	15.3 ± 1.96 µM	10.1 ± 2.2 µM	1.23 ± 1.09 µM	–	–	–	–	–	–	–	–	–
CCOP(=O)(OCC)C(NC(=O)CCOc1ccc2c(C)cc(=O)oc2c1)c1ccc2ccccc2c1 (stereo not shown) [Compound 8i, Diethyl(3-(4-methyl-2-oxo-2H-chromen-7-yloxy)propanamido)(naphthalen-2-yl)methylphosph-onate]	–	–	–	–	18100 M⁻¹	> 100 µM	41.5 ± 2.86 µM	38.9 ± 0.04 µM	–	–	–	–	–
CCOP(=O)(OCC)C(NC(=O)CCOc1ccc2c(C)cc(=O)oc2c1)c1ccccc1Br (stereo not shown) [Compound 8e, Diethyl(3-(4-methyl-2-oxo-2H-chromen-7-yloxy)propanamido)(2-bromophenyl)methylphospho-nate]	–	–	–	–	475 M⁻¹	> 100 µM	67.5 ± 3.26 µM	90.5 ± 1.09 µM	9.55 ± 0.09 µM	–	–	–	–
CCOP(=O)(OCC)C(NC(=O)CCOc1ccc2c(C)cc(=O)oc2c1)c1ccccc1OC (stereo not shown) [Compound 8h, Diethyl(3-(4-methyl-2-oxo-2H-chromen-7-yloxy)propanamido)(2-methoxyphenyl)methylphos-phonate]	–	–	–	–	357 M⁻¹	> 100 µM	36.9 ± 1.96 µM	23.7 ± 5.89 µM	–	2410 M⁻¹	28.5%	34.5%	–
CCOP(=O)(OCC)C(NC(=O)CCOc1ccc2c(C)cc(=O)oc2c1)c1ccccc1Cl (stereo not shown) [Compound 8c, Diethyl(3-(4-methyl-2-oxo-2H-chromen-7-yloxy)propanamido)(2-chlorophenyl)methylphospho-nate]	–	–	–	–	481 M⁻¹	> 100 µM	79.4 ± 3.82 µM	88.7 ± 1.69 µM	33.4 ± 1.2 µM	–	–	–	82.72%
CCOP(=O)(OCC)C(NC(=O)CCOc1ccc2c(C)cc(=O)oc2c1)c1ccccc1F (stereo not shown) [Compound 8b, Diethyl(3-(4-methyl-2-oxo-2H-chromen-7-yloxy)propanamido)(2-fluorophenyl)methylphospho-nate]	–	–	–	–	299 M⁻¹	> 100 µM	> 100 µM	> 100 µM	> 50 µM	–	–	–	–
CCOP(=O)(OCC)C(NC(=O)CCOc1ccc2c(C)cc(=O)oc2c1)c1ccccc1 (stereo not shown) [Compound 8a, Diethyl(3-(4-methyl-2-oxo-2H-chromen-7-yloxy)propanamido)(phenyl)methylphosphonate]	–	–	–	–	340 M⁻¹	> 100 µM	> 100 µM	> 100 µM	> 50 µM	–	–	–	–
CCOP(=O)(OCC)C(NC(=O)CCOc1ccc2c(C)cc(=O)oc2c1)c1ccc(Cl)cc1 (stereo not shown) [Compound 8d, Diethyl(3-(4-methyl-2-oxo-2H-chromen-7-yloxy)propanamido)(4-chlorophenyl)methylphospho-nate]	–	–	–	–	429 M⁻¹	> 100 µM	76.9 ± 3.89 µM	86.2 ± 1.86 µM	7.8 ± 5.36 µM	–	–	–	87.24%
CCOP(=O)(OCC)C(NC(=O)CCOc1ccc2c(C)cc(=O)oc2c1)c1ccc(Br)cc1 (stereo not shown) [Compound 8g, Diethyl(3-(4-methyl-2-oxo-2H-chromen-7-yloxy)propanamido)(4-bromophenyl)methylphosph-onate]	–	–	–	–	410 M⁻¹	> 100 µM	85.6 ± 2.83 µM	88.5 ± 4.62 µM	7.27 ± 6.18 µM	–	–	–	–
